The values that follow come from patent US10172864B2, “Therapeutically active compounds and their methods of use” (AGIOS PHARMACEUTICALS, INC, priority 2013, dated 2019).

pIC50: −log10 of the molar value.

For the assay, the target named is IDH1 wt/IDH1 R132H heterodimer (Homo sapiens (Human), UniProt O75874, R132H). The experiment in a line: IDH1 wt/IDH1 R132H heterodimer enzymatic assay, NADPH depletion with diaphorase/resazurin readout. As to conditions: 300 μM NADP (saturated). It counts as biochemical. The method, then: The following describes the experimental procedures that can be used to obtain data on columns 2 and 4 of Table 4 and column 2 of Table 5.
In the primary reaction, the reduction of α-KG acid to 2-HG is accompanied by a concomitant oxidation of NADPH to NADP. The amount of NADPH remaining at the end of the reaction time is measured in a secondary diaphorase/resazurin reaction in which the NADPH is consumed in a 1:1 molar ratio with the conversion of resazurin to the highly fluorescent resorufin.
The mixture of compound, enzyme, and cofactor is pre-incubated at room temperature for 1 hr prior to the addition of alpha-ketoglutarate. To perform the secondary reaction, 10 uL of 1× buffer containing 36 μg/ml diaphorase and […] resazurin is added to the primary reaction and incubated for a further 5 minutes at 25° C. […] Compounds or compound dilutions are prepared in 100% DMSO concentration and diluted 1:50 into the final reaction. […] IC50s are determined.
IDH1 or IDH2 wildtype (wt) and mutant heterodimers are expressed and purified by methods known in the art. […] Host cell contaminants are removed by washing the column with equilibration buffer followed by equilibration buffer containing 20 mM imidazole and 60 mM imidazole to baseline. […]

IDH1 wt/IDH1 R132H heterodimer, sequence (O75874 whole entry R132H): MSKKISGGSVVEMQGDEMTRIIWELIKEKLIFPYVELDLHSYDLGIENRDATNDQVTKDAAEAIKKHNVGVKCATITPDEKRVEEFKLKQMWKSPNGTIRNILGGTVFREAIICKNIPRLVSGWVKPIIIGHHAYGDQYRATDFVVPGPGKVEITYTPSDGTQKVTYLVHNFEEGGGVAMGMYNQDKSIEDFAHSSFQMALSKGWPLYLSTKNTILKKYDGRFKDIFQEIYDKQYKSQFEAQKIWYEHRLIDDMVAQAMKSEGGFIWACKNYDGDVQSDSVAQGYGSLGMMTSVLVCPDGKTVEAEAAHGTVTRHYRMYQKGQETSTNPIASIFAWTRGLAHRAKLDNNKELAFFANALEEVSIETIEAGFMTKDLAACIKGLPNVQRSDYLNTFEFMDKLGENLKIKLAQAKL
IDH1 wt/IDH1 R132H heterodimer, sequence (O75874 whole entry, stated change not applied): as the sequence (O75874 whole entry R132H) above, with H132R counted along it

For orientation: pIC50 means the negative decadic logarithm of the IC50, by convention in mol/L. Compound `FC1(F)CCC(Nc2nc(NC3CCC(F)(F)CC3)nc(-c3nc(C(F)(F)F)cs3)n2)CC1` [Compound 357] gave a negative-log IC50 (pIC50) of 7.00 to 7.30.
